This is an account of results in patent US12521393B2, “Cytotoxicity targeting chimeras for CCR2-expressing cells” (GLAXOSMITHKLINE INTELLECTUAL PROPERTY DEVELOPMENT LIMITED, priority 2021, dated 2026).

Test [1] relates to CCR2 expressing cells (CD11b+Ly6c+Hi) in peripheral blood. As to the kind of experiment: In vivo depletion assay, flow cytometry of peripheral blood (Example 201). Set-up: species or system human CCR2 knock-in mice (C57 background). Conditions: hCCR2 knock-in mice, IV 0.1 mpk compound + 10 mpk anti-cotinine antibody (SEQ ID NO: 13/14), peripheral blood at 48 hr. The method in brief: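 Mice dosed with compound formulated in saline/DMSO/PBS, with anti-cotinine antibody (rabbit variable region, mouse IgG2a Fc) where required, pre-incubated 30 min at room temperature. Terminal peripheral blood RBC-lysed, Fc-blocked, stained for CD45, CD3, CD11b, Ly6C, human CCR2 and 7AAD; percent depletion of CD11b+Ly6c+Hi cells determined by flow cytometry.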
Background: In flow cytometry, cells or beads pass a laser one at a time.

The target in test [2] is anti-cotinine antibody (SEQ ID NO: 11/12, rabbit variable region with human IgG1 Fc DE mutation). As to the kind of experiment: SPR binding of anti-cotinine antibody to ARM compounds, Biacore T200, 37° C. (Example 202). Conditions: SPR Biacore T200, 37° C., pH 7.4, antibody SEQ ID NO: 11/12 captured on protein A; Kd in molar. The method in brief: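 Antibody captured on a protein A chip; ARM compounds injected at 100 μL/min (200 s association, 2000 s dissociation), 3-fold 5-point series from 200 nM, at 37 °C in HEPES pH 7.4 buffer with 0.005% P20 and 1% DMSO. Double-referenced sensorgrams fit 1:1 for kon, koff, Kd (koff/kon), residence time (1/koff); pKd averaged across runs.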

Test [3] has as its system endogenous target monocytes in human PBMC. The test can be described thus: PBMC ex vivo monocyte depletion flow cytometry assay (Example 200). Particulars: with anti-cotinine antibody (SEQ ID NO: 11/12), 18-24 hours, EC50 in molar, read-out: Ex Vivo Depletion Assay pEC50 (converted). It counts as cell-based. Summed up: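 Monocyte depletion is reported as pEC50, averaged or given individually across runs, and read by flow cytometry staining CD45, CD14 and CD4 with a viability dye. Compounds, diluted four-fold over 11 points from 1 mM DMSO stocks, were combined with 30 μg/mL Fc-enhanced anti-cotinine antibody and human PBMC, then incubated 18-24 h at 37° C.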

Regarding `CN1C(=O)C[C@H](C(=O)NCCO[C@H]2CC[C@@H](OCCCC(=O)N[C@H]3CC[C@H](C(=O)N[C@@H]4C[C@H](NC(C)(C)C)CC[C@@H]4N4CC[C@H](Nc5ncnc6ccc(C(F)(F)F)cc56)C4=O)CC3)CC2)[C@H]1c1cccnc1` [Example 2, (2S,3S)-N-(2-(((1S,4R)-4-(4-(((1R,4R)-4-(((1R,2S,5R)-5-(tert-Butylamino)-2-((S)-2-oxo-3-((6-(trifluoromethyl)quinazolin-4-yl)amino)pyrrolidin-1-yl)cyclohexyl)carbamoyl)cyclohexyl)amino)-4-oxobutoxy)cyclohexyl)oxy)ethyl)-1-methyl-5-oxo-2-(pyridin-3-yl)pyrrolidine-3-carboxamide], the “% Depletion of CCR2 expressing cells” value in test [1] came to 92.3%. In addition, the “pKd of Antibody for ARM Compound of Formula (I)” value (from here on “pKd of Antibody”) in test [2] turned out to be 9.4775. Further, the EC50 in test [3] is 0.398 nM.

As to `CC(C)N(C)[C@@H]1CC[C@H](N2CC[C@H](Nc3ncnc4ccc(C(F)(F)F)cc34)C2=O)[C@H](NC(=O)[C@H]2CC[C@@H](NC(=O)CCCO[C@H]3CC[C@@H](OCCNC(=O)[C@H]4CC(=O)N(C)[C@@H]4c4cccnc4)CC3)CC2)C1` [Example 3, (2S,3S)-N-(2-(((1S,4R)-4-(4-(((1S,4S)-4-(((1R,2S,5R)-5-(Isopropyl(methyl)amino)-2-((S)-2-oxo-3-((6-(trifluoromethyl)quinazolin-4-yl)amino)pyrrolidin-1-yl)cyclohexyl)carbamoyl)cyclohexyl)amino)-4-oxobutoxy)cyclohexyl)oxy)ethyl)-1-methyl-5-oxo-2-(pyridin-3-yl)pyrrolidine-3-carboxamide], the “% Depletion of CCR2 expressing cells” value in test [1] is 87%. Besides, the “pKd of Antibody” value in test [2] was 9.2795. In addition, in test [3], the EC50 was 0.501 nM.

For the compound `CC(C)N(C)[C@@H]1CC[C@H](N2CC[C@H](Nc3ncnc4ccc(C(F)(F)F)cc34)C2=O)[C@H](NC(=O)[C@H]2CC[C@H](NC(=O)CCCO[C@H]3CC[C@@H](OCCNC(=O)[C@H]4CC(=O)N(C)[C@@H]4c4cccnc4)CC3)CC2)C1` [Example 4, (2S,3S)-N-(2-(((1S,4R)-4-(4-(((1R,4R)-4-(((1R,2S,5R)-5-(Isopropyl(methyl)amino)-2-((S)-2-oxo-3-((6-(trifluoromethyl)quinazolin-4-yl)amino)pyrrolidin-1-yl)cyclohexyl)carbamoyl)cyclohexyl)amino)-4-oxobutoxy)cyclohexyl)oxy)ethyl)-1-methyl-5-oxo-2-(pyridin-3-yl)pyrrolidine-3-carboxamide], the “% Depletion of CCR2 expressing cells” value in test [1] was 78.8%. Further, in test [2], the “pKd of Antibody” value was determined as 9.526. Further, in test [3], the EC50 was 1 nM.

For the compound `CC(C)N(C)[C@@H]1CC[C@H](N2CC[C@H](Nc3ncnc4ccc(C(F)(F)F)cc34)C2=O)[C@H](NC(=O)CCOCCNC(=O)CCCO[C@H]2CC[C@@H](OCCNC(=O)[C@H]3CC(=O)N(C)[C@@H]3c3cccnc3)CC2)C1` [Example 6, (2S,3S)-N-(2-(((1s,4R)-4-(4-((2-(3-(((1R,2S,5R)-5-(Isopropyl(methyl)amino)-2-((S)-2-oxo-3-((6-(trifluoromethyl)quinazolin-4-yl)amino)pyrrolidin-1-yl)cyclohexyl)amino)-3-oxopropoxy)ethyl)amino)-4-oxobutoxy)cyclohexyl)oxy)ethyl)-1-methyl-5-oxo-2-(pyridin-3-yl)pyrrolidine-3-carboxamide], in test [1], the “% Depletion of CCR2 expressing cells” value stood at 82%. Further, the “pKd of Antibody” value in test [2] was determined as 9.282. For the same compound, the EC50 in test [3] was 0.2 nM.

As to `CC(C)N(C)[C@@H]1CC[C@H](N2CC[C@H](Nc3ncnc4ccc(C(F)(F)F)cc34)C2=O)[C@H](NC(=O)[C@H]2CC[C@H](CNC(=O)CCCC(=O)NCCCOCCCNC(=O)[C@H]3CC(=O)N(C)[C@@H]3c3cccnc3)CC2)C1` [Example 20, N1-(((1R,4r)-4-(((1R,2S,5R)-5-(Isopropyl(methyl)amino)-2-((S)-2-oxo-3-((6-(trifluoromethyl)quinazolin-4-yl)amino)pyrrolidin-1-yl)cyclohexyl)carbamoyl)cyclohexyl)methyl)-N5-(3-(3-((2S,3S)-1-methyl-5-oxo-2-(pyridin-3-yl)pyrrolidine-3-carboxamido)propoxy)propyl)glutaramide], in test [1], the “% Depletion of CCR2 expressing cells” value was determined as 79%. Also, in test [2], the “pKd of Antibody” value worked out at 8.8705. Moreover, in test [3], the EC50 was 0.316 nM.

Consider `CN1C(=O)C[C@H](C(=O)NCCOCCOCCOCCC(=O)N[C@H]2CC[C@H](C(=O)N[C@@H]3C[C@H](NC(C)(C)C)CC[C@@H]3N3CC[C@H](Nc4ncnc5ccc(C(F)(F)F)cc45)C3=O)CC2)[C@H]1c1cccnc1` [Example 31, (2S,3S)-N-(2-(2-(2-(3-(((1S,4s)-4-(((1R,2S,5R)-5-(tert-Butylamino)-2-((S)-2-oxo-3-((6-(trifluoromethyl)quinazolin-4-yl)amino)pyrrolidin-1-yl)cyclohexyl)carbamoyl)cyclohexyl)amino)-3-oxopropoxy)ethoxy)ethoxy)ethyl)-1-methyl-5-oxo-2-(pyridin-3-yl)pyrrolidine-3-carboxamide], for which the “% Depletion of CCR2 expressing cells” value in test [1] is 94.9%. The “pKd of Antibody” value in test [2] came out at 9.3015. Also, the EC50 in test [3] is 3.16 nM.

`CC(C)N(C)[C@@H]1CC[C@H](N2CC[C@H](Nc3ncnc4ccc(C(F)(F)F)cc34)C2=O)[C@H](NC(=O)[C@H]2CC[C@H](CNC(=O)CCOCCOCCOCCNC(=O)[C@H]3CC(=O)N(C)[C@@H]3c3cccnc3)CC2)C1` [Example 32, (2S,3S)-N-(1-((1S,4s)-4-(((1R,2S,5R)-5-(Isopropyl(methyl)amino)-2-((S)-2-oxo-3-((6-(trifluoromethyl)quinazolin-4-yl)amino)pyrrolidin-1-yl)cyclohexyl)carbamoyl)cyclohexyl)-3-oxo-6,9,12-trioxa-2-azatetradecan-14-yl)-1-methyl-5-oxo-2-(pyridin-3-yl)pyrrolidine-3-carboxamide]: the “% Depletion of CCR2 expressing cells” value in test [1] is on record as 83%. Also, the “pKd of Antibody” value in test [2] is given as 9.1825. For the same compound, the EC50 in test [3] was 0.398 nM.

As to `CC(C)N(C)[C@@H]1CC[C@H](N2CC[C@H](Nc3ncnc4ccc(C(F)(F)F)cc34)C2=O)[C@H](NC(=O)CCOCCNC(=O)CCOCCNC(=O)CCOCCNC(=O)[C@H]2CC(=O)N(C)[C@@H]2c2cccnc2)C1` [Example 46, (2S,3S)-N-(20-(((1R,2S,5R)-5-(Isopropyl(methyl)amino)-2-((S)-2-oxo-3-((6-(trifluoromethyl)quinazolin-4-yl)amino)pyrrolidin-1-yl)cyclohexyl)amino)-6,13,20-trioxo-3,10,17-trioxa-7,14-diazaicosyl)-1-methyl-5-oxo-2-(pyridin-3-yl)pyrrolidine-3-carboxamide], in test [1], the “% Depletion of CCR2 expressing cells” value is 96%. In addition, the “pKd of Antibody” value in test [2] was 9.074. In test [3], the EC50 was 0.501 nM.

Regarding `CC(C)N(C)[C@@H]1CC[C@H](N2CC[C@H](Nc3ncnc4ccc(C(F)(F)F)cc34)C2=O)[C@H](NC(=O)COCCNC(=O)CCOCCNC(=O)CCOCCNC(=O)[C@H]2CC(=O)N(C)[C@@H]2c2cccnc2)C1` [Example 47, (2S,3S)-N-(1-(((1R,2S,5R)-5-(Isopropyl(methyl)amino)-2-((S)-2-oxo-3-((6-(trifluoromethyl)quinazolin-4-yl)amino)pyrrolidin-1-yl)cyclohexyl)amino)-1,7,14-trioxo-3,10,17-trioxa-6,13-diazanonadecan-19-yl)-1-methyl-5-oxo-2-(pyridin-3-yl)pyrrolidine-3-carboxamide], the “% Depletion of CCR2 expressing cells” value in test [1] came out at 73%. Also, the “pKd of Antibody” value in test [2] is 9.051. Also, in test [3], the EC50 is 0.316 nM.

As to `CC(C)N(C)[C@@H]1CC[C@H](N2CC[C@H](Nc3ncnc4ccc(C(F)(F)F)cc34)C2=O)[C@H](NC(=O)[C@H]2CC[C@@H](NC(=O)CCCC(=O)NCCCC(=O)NCCCNC(=O)[C@H]3CC(=O)N(C)[C@@H]3c3cccnc3)CC2)C1` [Example 56, N^1-((1S,4s)-4-(((1R,2S,5R)-5-(Isopropyl(methyl)amino)-2-((S)-2-oxo-3-((6-(trifluoromethyl)quinazolin-4-yl)amino)pyrrolidin-1-yl)cyclohexyl)carbamoyl)cyclohexyl)-N^5-(4-((3-((2S,3S)-1-methyl-5-oxo-2-(pyridin-3-yl)pyrrolidine-3-carboxamido)propyl)amino)-4-oxobutyl)glutaramide], in test [1], the “% Depletion of CCR2 expressing cells” value turned out to be 97%. Further, the “pKd of Antibody” value in test [2] is on record as 9.3185.

On to `CC(C)N(C)[C@@H]1CC[C@H](N2CC[C@H](Nc3ncnc4ccc(C(F)(F)F)cc34)C2=O)[C@H](NC(=O)[C@H]2CC[C@@H](NC(=O)CNC(=O)CCOCCOCCNC(=O)[C@H]3CC(=O)N(C)[C@@H]3c3cccnc3)CC2)C1` [Example 83, (2S,3S)-N-(2-(2-(3-((2-(((1S,4s)-4-(((1R,2S,5R)-5-(Isopropyl(methyl)amino)-2-((S)-2-oxo-3-((6-(trifluoromethyl)quinazolin-4-yl)amino)pyrrolidin-1-yl)cyclohexyl)carbamoyl)cyclohexyl)amino)-2-oxoethyl)amino)-3-oxopropoxy)ethoxy)ethyl)-1-methyl-5-oxo-2-(pyridin-3-yl)pyrrolidine-3-carboxamide], for which the “% Depletion of CCR2 expressing cells” value in test [1] came out at 67%. For the same compound, in test [2], the “pKd of Antibody” value is on record as 9.302.
